Source: patent US11760762B2, “Thienopyranones and furanopyranones as kinase, bromodomain, and checkpoint inhibitors” (SignalRx Pharmaceuticals, Inc., priority 2017, dated 2023)
Where two headings read alike, the source gives them in different places.

Experiments:
Huh7 = test: Hepatocellular carcinoma cell viability, AlamarBlue; assay type: cell-based; conditions: Homo sapiens, Huh-7; 24 hours; read-out: Hepatocarcinoma Cell Line IC50 Values Huh7
Experimental: (§1) Cells were seeded into 96-well plate at 1×10^4 cell per well in complete medium+10% FCS and incubated for 24 hours prior to the addition of compounds at concentrations ranging from 50 μM to 50 nM. Cell viability was quantitated 24 hours after the addition of compounds using AlamarBlue® viable cell detection reagent. IC50 curves were determined using Graphpad Prism software.

Hep3B = test: as above; assay type: cell-based; conditions: Homo sapiens, 24 hours, read-out: Hepatocarcinoma Cell Line IC50 Values Hep3B
Experimental: as §1

HepG2 = test: as above; assay type: cell-based; conditions: Homo sapiens, 24 hours, read-out: Hepatocarcinoma Cell Line IC50 Values HepG2
Experimental: as §1

Mino and Granta cells = test: Western blot PI3K and CDK4/cyclin D/Rb signaling in mantle cell lymphoma cells; assay type: cell-based; conditions: 24 hours
Source text: Cells were lysed in RIPA buffer and equal protein was loaded on SDS-PAGE gel followed by western blotting using p-AKT-Ser473, AKT, pRB-S780/811, RB, pP70S6K. β-actin served as loading control.

[1] = Oral pharmacokinetic (PK) study (Quintara Discovery); assay type: in vivo; conditions: plasma, oral gavage 30 mg/kg
Source text: The in vivo anticancer activity displaying drug like properties also bears this out as shown in FIG. 9 and the corresponding example.

CHLA-255 = test: Neuroblastoma cell viability, Alamar Blue; assay type: cell-based; conditions: Homo sapiens, 24 hours incubation
Experimental: (§2) IC50 for each cell line was determined using Graphpad Prism software module.

SMS-KNCR = test: Neuroblastoma cell viability, Alamar Blue; assay type: cell-based; conditions: Homo sapiens, 24 hours incubation
Experimental: as §2

CHLA-136 = test: Neuroblastoma cell viability, Alamar Blue; assay type: cell-based; conditions: Homo sapiens, 24 hours incubation
Experimental: as §2

Jeko-1 = test: Mantle cell lymphoma cell viability, AlamarBlue; assay type: cell-based
Experimental: (§3) Mantle cell lymphoma cell lines Granta, Mino and Jeko-1 were seeded at a density of 2500 cells/0.1 mL per well in a 96-well plate. Compounds 1 or Palbociclib were added post-plating at 50 μM-50 nM concentrations for 48 hours followed by addition of AlamarBlue® and incubation of plates at 37° C. in 5% CO2 for 6 hours. Fluorescence signals were read as emission at 590 nm after excitation at 560 nm. IC50 for each cell line was determined using Graphpad Prism software module.

Mino = test: Mantle cell lymphoma cell viability, AlamarBlue; assay type: cell-based
Experimental: as §3

Granta = test: Mantle cell lymphoma cell viability, AlamarBlue; assay type: cell-based
Experimental: as §3

PI3K-delta = molecular target: T1, PI3K-delta (Homo sapiens, UniProt O00329); test: PI3K inhibition (Thermo Fisher Scientific); assay type: biochemical; conditions: 10-point curve, grouped by potency; read-out: IC50 P13K δ
T1 construct: Thermo Fisher Scientific-Biosciences Life Sciences Solutions, Madison, WI (contract assay service)
Experimental: (§4) PI3K-alpha, PI3K-beta, PI3K-gamma, and PI3K-delta inhibition activity was determined by Thermo Fisher Scientific-Biosciences Life Sciences Solutions, Madison, WI The bromodomain protein inhibition (binding domain 1 and 2 of BRD4) was determined by Reaction Biology Corp., Malvern, PA The cyclin dependent kinase inhibition on proteins such as CDK2, CDK4, CDK6, and CDK9 was determined by Reaction Biology Corp., Malvern, PA.
(§5) The compounds of the invention were characterized by their ability to inhibit the target proteins using third party vendors offering such services. PI3K-alpha, PI3K-gamma, and PI3K-delta inhibition activity was determined by Thermo Fisher Scientific-Biosciences Life Sciences Solutions, Madison, WI. […] NI=no inhibition detected up to 50 μM or IC50 not reached at 50 μM. ND=not done.

PI3K-gamma = molecular target: T2, PI3K-gamma (Homo sapiens, UniProt P48736); test: PI3K inhibition (Thermo Fisher Scientific); assay type: biochemical; conditions: 10-point curve, grouped by potency; read-out: IC50 P13K γ
T2 construct: Thermo Fisher Scientific-Biosciences Life Sciences Solutions, Madison, WI (contract assay service)
Experimental: as §4, §5

CDK9 = molecular target: T3, CDK9 (Homo sapiens, UniProt P50750); test: Cyclin dependent kinase inhibition (Reaction Biology Corp.); assay type: biochemical
T3 construct: Reaction Biology Corp., Malvern, PA (contract assay service)
Experimental: as §4

CDK2 = molecular target: T4, CDK2 (Homo sapiens, UniProt P24941); test: as above; assay type: biochemical
T4 construct: Reaction Biology Corp., Malvern, PA (contract assay service)
Experimental: as §4

Huh7 cells [2] = test: Huh7 tumor implantation in NGS mice, safety and efficacy; conditions: 30 mg/kg oral gavage, 5 times per week for 2 weeks
Source text: 1×10^7 Huh7 cells were implanted into NGS mice. When tumors reached ˜100 mm^3 after 14 days of tumor implantation, animals were divided into four groups (n=8 per group).

[3] = system: Hepatocellular carcinoma, Neuroblastoma, and Mantle Cell lymphoma cell lines; test: Percent viability versus concentration, comparison with Palbociclib and combination; assay type: cell-based
Experimental: The percent viability versus concentration experimental procedures for hepatocellular carcinoma cell lines, neuroblastoma cell lines, and Mantle cell lymphoma cell lines was performed as described in example 6, example 4, and example 5, respectively.

CDK4 = molecular target: T5, CDK4 (Homo sapiens, UniProt P11802); test: Cyclin dependent kinase inhibition (Reaction Biology Corp.); assay type: biochemical
T5 construct: Reaction Biology Corp., Malvern, PA (contract assay service)
Experimental: as §4, §5

CDK6 = molecular target: T6, CDK6 (Homo sapiens, UniProt Q00534); test: as above; assay type: biochemical
T6 construct: Reaction Biology Corp., Malvern, PA (contract assay service)
Experimental: as §4, §5

Huh7 2H cell line = test: Huh7 2H cell viability; assay type: cell-based; conditions: Homo sapiens, Huh-7, 2 h
Experimental: as §1
The procedures of example 6 were followed except using the Huh7 2H cell line.

Huh7 cells [4] = test: Western blot signaling in IGF-1 stimulated Huh7 cells (p-AKT, pRB); assay type: cell-based; conditions: Huh7, serum starved, IGF-1 stimulation 30 min
Experimental: The hepatocellular carcinoma cell line, Huh7 was serum starved overnight in serum free medium. Cells were seeded into a 96 well tissue culture plate at 1×10^4 cells/well and pulsed with IGF-1 stimulation for 30 min at 37° C. at which time lysates were generated for SDS PAGE analysis. Western blot analysis was performed for p-AKT, AKT, pRB, RB and beta actin as loading control.

PIM1 = PIM1 (Homo sapiens, UniProt P11309); test: PIM1 inhibition; assay type: biochemical
DNA-PK = DNA-PK (Homo sapiens, UniProt P78527); test: DNA-PK inhibition; assay type: biochemical
[5] = 10-point curve, grouped by potency

T6 sequence (Q00534 whole entry): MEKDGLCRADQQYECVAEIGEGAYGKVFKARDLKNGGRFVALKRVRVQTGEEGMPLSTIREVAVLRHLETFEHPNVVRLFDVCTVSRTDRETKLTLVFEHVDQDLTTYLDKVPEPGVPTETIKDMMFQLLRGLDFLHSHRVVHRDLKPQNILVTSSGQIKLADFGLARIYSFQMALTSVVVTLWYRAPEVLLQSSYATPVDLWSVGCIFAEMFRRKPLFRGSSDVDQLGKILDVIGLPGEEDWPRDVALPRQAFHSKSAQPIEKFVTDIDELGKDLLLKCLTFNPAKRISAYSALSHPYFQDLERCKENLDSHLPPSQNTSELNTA
T6 sequence (P24385 whole entry partner): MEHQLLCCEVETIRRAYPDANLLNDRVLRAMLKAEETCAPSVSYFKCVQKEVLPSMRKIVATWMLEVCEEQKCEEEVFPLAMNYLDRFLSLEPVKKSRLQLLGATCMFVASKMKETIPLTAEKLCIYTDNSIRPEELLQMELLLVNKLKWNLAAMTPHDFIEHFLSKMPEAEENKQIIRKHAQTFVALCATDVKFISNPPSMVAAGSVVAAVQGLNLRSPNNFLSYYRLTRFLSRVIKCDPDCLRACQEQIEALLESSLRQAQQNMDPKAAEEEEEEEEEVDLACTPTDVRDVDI
T5 sequence (P11802 whole entry): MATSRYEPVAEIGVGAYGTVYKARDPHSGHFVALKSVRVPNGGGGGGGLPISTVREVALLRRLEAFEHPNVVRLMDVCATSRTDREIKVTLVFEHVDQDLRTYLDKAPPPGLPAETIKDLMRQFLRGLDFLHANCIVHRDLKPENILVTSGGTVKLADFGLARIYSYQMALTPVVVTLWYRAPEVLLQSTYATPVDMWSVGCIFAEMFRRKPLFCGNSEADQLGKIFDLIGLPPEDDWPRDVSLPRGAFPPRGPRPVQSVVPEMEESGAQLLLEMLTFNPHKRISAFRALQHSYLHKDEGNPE
T5 sequence (P24385 whole entry partner): as the sequence (P24385 whole entry partner) above
T2 sequence (P48736 whole entry): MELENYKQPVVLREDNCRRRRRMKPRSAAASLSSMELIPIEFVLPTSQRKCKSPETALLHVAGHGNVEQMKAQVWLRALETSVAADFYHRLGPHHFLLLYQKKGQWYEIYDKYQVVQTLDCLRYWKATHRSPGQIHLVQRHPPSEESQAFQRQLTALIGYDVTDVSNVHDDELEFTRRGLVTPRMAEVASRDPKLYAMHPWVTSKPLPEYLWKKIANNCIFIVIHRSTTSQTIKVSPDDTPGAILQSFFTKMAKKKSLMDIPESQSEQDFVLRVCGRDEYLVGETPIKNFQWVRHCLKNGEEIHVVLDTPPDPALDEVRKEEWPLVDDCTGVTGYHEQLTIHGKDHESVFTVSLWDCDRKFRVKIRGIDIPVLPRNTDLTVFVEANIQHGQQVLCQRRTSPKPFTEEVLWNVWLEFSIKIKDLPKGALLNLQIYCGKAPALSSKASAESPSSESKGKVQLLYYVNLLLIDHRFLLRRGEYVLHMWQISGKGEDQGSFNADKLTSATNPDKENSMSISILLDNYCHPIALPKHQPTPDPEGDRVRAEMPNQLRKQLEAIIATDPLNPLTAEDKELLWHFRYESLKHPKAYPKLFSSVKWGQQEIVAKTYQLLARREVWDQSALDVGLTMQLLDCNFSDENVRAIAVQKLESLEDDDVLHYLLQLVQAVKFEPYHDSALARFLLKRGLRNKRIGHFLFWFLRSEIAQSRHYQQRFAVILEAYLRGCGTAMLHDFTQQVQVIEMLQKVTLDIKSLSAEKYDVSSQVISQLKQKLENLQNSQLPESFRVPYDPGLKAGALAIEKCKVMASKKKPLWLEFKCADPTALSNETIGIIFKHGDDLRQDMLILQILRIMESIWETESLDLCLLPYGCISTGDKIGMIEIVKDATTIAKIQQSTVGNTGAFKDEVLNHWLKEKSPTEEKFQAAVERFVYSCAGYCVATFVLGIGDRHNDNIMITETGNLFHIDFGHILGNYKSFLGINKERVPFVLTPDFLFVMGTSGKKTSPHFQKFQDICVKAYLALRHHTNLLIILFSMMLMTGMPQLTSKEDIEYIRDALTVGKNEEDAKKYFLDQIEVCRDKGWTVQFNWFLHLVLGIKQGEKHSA
T3 sequence (P50750 whole entry): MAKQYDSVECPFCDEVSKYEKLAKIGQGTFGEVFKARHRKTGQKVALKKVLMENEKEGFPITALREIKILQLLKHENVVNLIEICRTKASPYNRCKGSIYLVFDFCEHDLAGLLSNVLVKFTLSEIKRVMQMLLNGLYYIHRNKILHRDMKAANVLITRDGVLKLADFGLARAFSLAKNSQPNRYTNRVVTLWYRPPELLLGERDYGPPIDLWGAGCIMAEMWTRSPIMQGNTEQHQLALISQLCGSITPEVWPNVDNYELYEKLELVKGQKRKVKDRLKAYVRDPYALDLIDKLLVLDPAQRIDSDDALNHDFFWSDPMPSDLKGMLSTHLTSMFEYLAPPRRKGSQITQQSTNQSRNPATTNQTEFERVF
T3 sequence (O60563 whole entry partner): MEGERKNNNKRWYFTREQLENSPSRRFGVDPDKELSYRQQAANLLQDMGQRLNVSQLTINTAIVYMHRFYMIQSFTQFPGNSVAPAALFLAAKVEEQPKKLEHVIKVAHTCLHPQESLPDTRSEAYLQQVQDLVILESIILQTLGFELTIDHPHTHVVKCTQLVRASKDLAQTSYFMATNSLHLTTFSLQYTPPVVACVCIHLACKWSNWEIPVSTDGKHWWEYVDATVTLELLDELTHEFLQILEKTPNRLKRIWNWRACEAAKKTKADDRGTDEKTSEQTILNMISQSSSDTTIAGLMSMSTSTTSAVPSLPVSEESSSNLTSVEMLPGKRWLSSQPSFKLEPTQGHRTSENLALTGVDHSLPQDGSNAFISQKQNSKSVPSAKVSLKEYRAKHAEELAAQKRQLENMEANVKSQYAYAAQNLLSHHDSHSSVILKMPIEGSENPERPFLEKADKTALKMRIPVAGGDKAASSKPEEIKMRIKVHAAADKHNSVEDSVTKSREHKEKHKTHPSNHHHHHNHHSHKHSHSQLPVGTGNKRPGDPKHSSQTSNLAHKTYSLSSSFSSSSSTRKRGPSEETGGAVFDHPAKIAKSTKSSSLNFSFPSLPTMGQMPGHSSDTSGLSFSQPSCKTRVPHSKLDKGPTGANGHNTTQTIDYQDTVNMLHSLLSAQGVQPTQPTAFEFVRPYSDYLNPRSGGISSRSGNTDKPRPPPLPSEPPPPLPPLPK
T1 sequence (O00329 whole entry): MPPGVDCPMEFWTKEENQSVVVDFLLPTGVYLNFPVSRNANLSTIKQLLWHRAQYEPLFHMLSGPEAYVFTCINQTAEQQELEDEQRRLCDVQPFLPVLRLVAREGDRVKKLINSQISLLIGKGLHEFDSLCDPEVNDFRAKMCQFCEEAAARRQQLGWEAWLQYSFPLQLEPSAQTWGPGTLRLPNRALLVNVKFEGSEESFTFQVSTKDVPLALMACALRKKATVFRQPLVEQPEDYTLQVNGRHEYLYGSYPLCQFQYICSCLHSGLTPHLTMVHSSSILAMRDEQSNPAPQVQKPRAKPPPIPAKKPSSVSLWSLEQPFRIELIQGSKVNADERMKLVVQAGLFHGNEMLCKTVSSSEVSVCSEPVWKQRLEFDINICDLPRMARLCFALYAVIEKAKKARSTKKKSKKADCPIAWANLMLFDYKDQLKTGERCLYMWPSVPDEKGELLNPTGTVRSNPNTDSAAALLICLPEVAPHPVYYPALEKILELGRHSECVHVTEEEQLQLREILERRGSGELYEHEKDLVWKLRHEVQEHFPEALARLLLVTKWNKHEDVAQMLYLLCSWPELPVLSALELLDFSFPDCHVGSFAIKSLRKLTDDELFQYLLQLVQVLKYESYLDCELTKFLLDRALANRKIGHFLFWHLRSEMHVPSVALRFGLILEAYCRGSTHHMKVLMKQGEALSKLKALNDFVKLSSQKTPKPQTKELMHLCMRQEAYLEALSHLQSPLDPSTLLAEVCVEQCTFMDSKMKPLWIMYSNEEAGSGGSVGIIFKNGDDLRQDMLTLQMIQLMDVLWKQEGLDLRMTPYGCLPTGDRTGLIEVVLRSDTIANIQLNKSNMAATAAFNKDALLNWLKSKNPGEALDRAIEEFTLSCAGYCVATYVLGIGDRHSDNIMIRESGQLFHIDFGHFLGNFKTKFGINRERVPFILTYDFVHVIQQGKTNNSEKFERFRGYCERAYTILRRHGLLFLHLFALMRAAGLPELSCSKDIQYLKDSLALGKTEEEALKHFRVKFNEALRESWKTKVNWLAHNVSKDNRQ
T1 sequence (P27986 whole entry partner): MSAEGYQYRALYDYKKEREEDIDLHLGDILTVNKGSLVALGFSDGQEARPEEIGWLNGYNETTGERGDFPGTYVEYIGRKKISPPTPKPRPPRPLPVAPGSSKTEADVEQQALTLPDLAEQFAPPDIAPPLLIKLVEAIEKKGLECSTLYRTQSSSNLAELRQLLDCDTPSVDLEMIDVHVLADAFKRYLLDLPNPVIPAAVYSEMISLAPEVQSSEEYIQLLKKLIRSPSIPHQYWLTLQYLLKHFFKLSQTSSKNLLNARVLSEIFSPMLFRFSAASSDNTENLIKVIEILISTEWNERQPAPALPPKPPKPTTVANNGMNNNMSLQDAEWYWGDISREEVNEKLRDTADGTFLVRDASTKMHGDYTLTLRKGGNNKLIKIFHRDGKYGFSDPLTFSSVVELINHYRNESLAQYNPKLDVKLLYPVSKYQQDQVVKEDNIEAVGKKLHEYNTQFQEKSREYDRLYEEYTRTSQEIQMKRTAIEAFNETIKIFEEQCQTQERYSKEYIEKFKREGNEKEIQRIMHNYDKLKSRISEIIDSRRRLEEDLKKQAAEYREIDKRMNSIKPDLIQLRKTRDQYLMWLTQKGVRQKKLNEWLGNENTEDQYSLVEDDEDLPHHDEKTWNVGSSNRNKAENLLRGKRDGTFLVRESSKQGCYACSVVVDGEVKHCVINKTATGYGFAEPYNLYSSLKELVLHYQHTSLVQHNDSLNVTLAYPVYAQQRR

CN(C)C(=O)c1cc2cnc(Nc3ccc(-c4csc5c(=O)cc(N6CCOCC6)oc45)cc3)nc2n1C1CCCC1 [Compound 1, {1-Cyclopentyl-6-[p-(5-morpholino-7-oxo-4-oxa-1-thia-3-indenyl)phenylamino]-1,5,7-triaza-1H-inden-2-yl} (dimethylamino) formaldehyde]
IC50 (Huh7): 550 nM | IC50 (Hep3B): 1100 nM | IC50 (HepG2): 4.2 µM | PI3K-AKT signaling (p-AKT), Western blot (Mino and Granta cells): inhibits | cyclin D/RB signaling (phosphorylation of RB), Western blot (Mino and Granta cells): inhibits | concentration at 24 h ([1]; 24 hours): 63 nM | AUC(0-inf) ([1]; Hot Rod Formulation Kit #8): 3520 ng·h/mL | Cmax ([1]; Hot Rod Formulation Kit #8): 1400 nM | Tmax ([1]; Hot Rod Formulation Kit #8): 30 min | half-life ([1]; Hot Rod Formulation Kit #8, read-out: T1/2 (half-life) (converted)): 624 min | IC50 (CHLA-255): 385 nM | IC50 (SMS-KNCR): 962 nM | IC50 (CHLA-136): 4.5 µM | IC50 (Jeko-1; Homo sapiens, JeKo-1, 48 hours, read-out: Mantle Cell Line IC50 Values Jeko-1): 851 nM | times more potent than Palbociclib, Jeko-1 (Jeko-1; ratio of IC50 values): 8.7 times | IC50 (Mino; Homo sapiens, MINO, 48 hours, read-out: Mantle Cell Line IC50 Values Mino): 583 nM | times more potent than Palbociclib, Mino (Mino; ratio of IC50 values): 82.1 times | IC50 (Granta; 48 hours, read-out: Mantle Cell Line IC50 Values Granta): 580 nM | times more potent than Palbociclib, Granta (Granta; ratio of IC50 values): 17.7 times | IC50 (PI3K-delta): < 100 nM | IC50 (PI3K-gamma): 1000 to 5000 nM | IC50 (CDK9): 2 nM | IC50 (CDK2): 500 nM | in vivo anticancer efficacy (Huh7 tumors) (Huh7 cells [2]): comparable to the efficacy of 3 separate cognate inhibitors | cell viability compared with Palbociclib ([3]; Hepatocellular carcinoma, Neuroblastoma, Mantle Cell lymphoma cell lines (FIG. 8A-8C)): performed substantially better than Palbociclib | cell viability compared with combination BKM120, JQ1, Palbociclib ([3]; hepatocellular carcinoma cells (FIG. 8D)): performed substantially better | IC50 (CDK4): < 2.54 nM | IC50 (CDK4; [5]): < 100 nM | IC50 (CDK6): 3.26 nM | IC50 (CDK6; [5]): < 100 nM | IC50 (Huh7 2H cell line): 495 nM | phosphorylation of CDK target RB (pRB), Western blot (Huh7 cells [4]): blocks phosphorylation | phosphorylation of PI3K target AKT (p-AKT), Western blot (Huh7 cells [4]): blocks phosphorylation | IC50 (PIM1): 35 nM | IC50 (DNA-PK): 21 nM
